In one test the test system is human platelets. The test is described as follows: Increase in cyclic AMP in human platelets. The test is classed as cell-based. The following applies: for activation at 1 µM: Platelet, read-out: increase in the level of cyclic AMP.
Test [1] concerns locomotor activity in NIH mice. The test can be described thus: Locomotor depression by A2 adenosine agonists in mice (Digiscan activity monitor). The following applies: Mus musculus, ip, read-out: ED50, locomotor depression. It counts as in vivo, mouse.
Test [2] concerns the target striatal A2-adenosine receptors. The following applies: Barrington et al., 1989, cited from earlier work.
In test [3] the test system is striatal A2-adenosine receptors. The test can be described thus: Direct binding of 125I-PAPA-APEC to striatal A2-adenosine receptors in bovine brain. The following applies: HPLC peak B.
Test [4] deals with A2-adenosine receptors. The test can be described thus: Competitive binding assay in bovine brain using 125I-PAPA-APEC (striatal membranes). As to the method: (§1) The filters were washed with three×3 ml aliquots of pH 7.2 buffer containing 50 mM HEPES, 10 mM Mg^+2, and 0.05% CHAPS. The filters were placed in polypropylene tubes and counted in a Packard gamma counter.
Test [5] addresses T1, A2 adenosine receptors (Bos taurus, UniProt E1BKU0). The test is described as follows: Displacement of 125I-APNEA from bovine striatum A2 adenosine receptors. It counts as binding. Also noted: bovine striatum A2 adenosine receptors; from tissue; host or cells: bovine striatum. The text has this: FITC-APEC binding to bovine striatal membranes was saturable as illustrated by an isotherm representing bound ligand versus increasing concentrations of FITC-APEC (FIG. 1B).
In general terms: Displacement assays read how much labelled ligand stays bound in the presence of the test substance.

Test [6] concerns the target T1, A2 adenosine receptors. The test can be described thus: Competitive binding assay in bovine brain using 125I-PAPA-APEC (striatal membranes). Also noted: Bovine striatal membranes; from tissue; host or cells: bovine (calf) striatal membranes. The following applies: for Ki: bovine striatum, 11, 12 and 14: apparent Ki, read-out: Ki, inhibition of binding of 125I-PAPA-APEC at A2-receptors. How it is done: as §1

The target of the next test is T2, adenosine A2 receptors (Bos taurus, UniProt E1BKU0).
T2 construct: Striatal tissues obtained from bovine brain; tissue Pel-Freeze Biologicals, Rogers, Ark; host or cells: bovine striatal tissue
T2 sequence (E1BKU0 1-401): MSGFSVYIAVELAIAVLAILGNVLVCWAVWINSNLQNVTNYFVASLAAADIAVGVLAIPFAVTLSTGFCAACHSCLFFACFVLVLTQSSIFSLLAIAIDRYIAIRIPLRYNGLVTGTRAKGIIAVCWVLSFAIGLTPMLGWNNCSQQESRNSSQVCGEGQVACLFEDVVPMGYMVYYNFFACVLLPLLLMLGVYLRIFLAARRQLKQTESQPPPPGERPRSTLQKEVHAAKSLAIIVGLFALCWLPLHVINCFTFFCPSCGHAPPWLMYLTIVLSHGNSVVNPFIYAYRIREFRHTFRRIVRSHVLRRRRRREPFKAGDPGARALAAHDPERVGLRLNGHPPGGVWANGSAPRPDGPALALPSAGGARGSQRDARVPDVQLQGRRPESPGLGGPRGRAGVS
The test is described as follows: FITC-APEC fluorescent binding (association and saturation) to bovine striatal membranes. The text has this: Compounds useful in fluorescent binding assays of adenosine A2 receptors in striatal membranes may be used to screen new ligands for affinity at these receptors, thus contributing to the development of new drugs specific or selective to this receptor. […] The following is an example.
Striatal tissues obtained from bovine brain (Pel-Freeze, Biologicals, Rogers, Ark.) were homogenized in 10 volumes of 0.32M sucrose using a Teflon pestle and glass tube (6-7 passes). The homogenate was centrifuged (4° C.) at 579×g (2,000 rpm) for 10 minutes 4° C.). The initial pellet (P1) was discarded and supernatant recentrifuged at 4° C. (16,000 rpm) for 1 hour. The resultant pellet (P2) was resuspended in ice-cold distilled water using a Brinkman Polytron (setting 6-7, for 3 seconds) and centrifuged (4° C.) at 37,059×g for 1 hour. The distilled water supernatant was decanted and the pellet was resuspended in buffer (50 mM TrisHCl, pH 7.4 at 4° C.) and centrifuged a final time for 1 hour. Tissue homogenates were […] at -80° C. for 1-3 days until binding assays were performed. Adenosine deaminase, (Boehringer Mannheim Biochemicals, Indianapolis, Ind.) from calf intestine was included (10 μ/mg protein, specific activity=200μ/mg) in the incubation media to eliminate endogenous adenosine. Protein quantities were assessed by using the Pierce BCA Protein Assay Reagent (Rockford, Ill.). Protein quantities were ~300μg/assay tube.
Fluorescence intensity (counts per second, cps) was measured using a SPEX Fluorolog Model 1680 0.22-m Double Spectrometer with DM3000 software (SPEX Industries, Edison, N.J.). Excitation and emission spectra were determined by comparing FITC-APEC (Compound 18, 1 μM) to buffer ([…] containing […], pH 7.4 or 8.1 at room temperature) or tissue suspension equivalent in concentration to that used for fluorescent ligand binding experiments. Excitation and emission maxima for FITC-APEC were 492 and 516 nm, respectively.
Association studies of FITC-APEC were performed by incubating (room temperature) striatal membranes in polypropylene tubes containing buffer (pH 7.4) and FITC-APEC (50 nM) for 5-120 minutes. […]
Quantitation (see McCabe et al. Faseb J., Vol. 4, pp 2934-2945, 1990) of FITC-APEC binding was performed by generating a standard line relating fluorescence intensity (cps) emitted to known concentrations (0.5-1024 nM) of FITC-APEC, in buffer ("free" ligand) or tissue suspension.
Bound ligand concentrations (μM) were estimated using linear regression analysis and mole quantities of FITC-APEC bound/mg protein were subsequently determined.

The next test concerns the target T3, A1-adenosine receptors (Rattus norvegicus, UniProt P25099).
T3 construct: rat cerebral cortex membranes; from tissue; host or cells: rat cerebral cortex membranes
T3 sequence (P25099 1-326): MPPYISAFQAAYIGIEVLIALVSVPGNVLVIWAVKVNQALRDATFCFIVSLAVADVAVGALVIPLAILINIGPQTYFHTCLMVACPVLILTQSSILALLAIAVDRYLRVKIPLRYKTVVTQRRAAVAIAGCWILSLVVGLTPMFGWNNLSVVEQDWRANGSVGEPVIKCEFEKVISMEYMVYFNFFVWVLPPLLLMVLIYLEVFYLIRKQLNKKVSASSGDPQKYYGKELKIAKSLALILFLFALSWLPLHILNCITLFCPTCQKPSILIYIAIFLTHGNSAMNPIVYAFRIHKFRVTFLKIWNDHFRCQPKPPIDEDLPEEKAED
The test can be described thus: Competitive binding assay at A1-adenosine receptors, rat cerebral cortex membranes ([3H]PIA or [3H]CHA). The following applies: rat; [3H]PIA; read-out: Ki, inhibition of binding of [3H]PIA at A1-receptors.

Test [7] has as its target T4, A2-adenosine receptors (Rattus norvegicus, UniProt P30543).
T4 construct: rat striatal membranes; from tissue; host or cells: rat striatal membranes
The test can be described thus: Inhibition of binding of [3H]CGS21680 to A2-adenosine receptors in rat striatal membranes. The following applies: read-out: Ki, inhibition of binding of [3H]CGS21680 at A2-receptors. How it is done:
Stock solutions of representative compounds of the present invention in the millimolar concentration range in dimethylsulfoxide were prepared for the binding assays. […] Protein was determined using the BCA (based on the complex with cuprous ions and bicinchoninic acid) protein assay reagents purchased from Pierce Chemical Co., Rockford, Ill.
The membrane suspension was then centrifuged at 37,000×g for 20 min at 4° C. The pellet was resuspended in buffer containing 2 IU/ml adenosine deaminase, Type VI from calf intestinal mucosa (Sigma, St. Louis, Mo.) to 20 mg/ml original tissue weight and incubated at 37° C. for 30 min. The membrane homogenate was recentrifuged as before, and the pellet was stored frozen at -70° C. until use.
For competitive binding assays using [^3 H]CGS21680, a volume of 1 ml was used in each 13×100 mm glass tube. […] The mixture was incubated with shaking for 90 min at 24° C. The samples were filtered on a Brandel Cell Harvester (Brandel, Gaithersburg, Md.) with Whatman GF/B filters, and washed rapidly twice with 5 ml of ice cold 50 mM Tris, pH 7.4. Each filter disc was added to 4 ml of scintillation fluid, vortexed, and counted after 6 hours.

Where [8] appears, read: bovine striatal membranes, fluorescence, 90 min, room temperature.

Results on four compounds are retold here after US5280015A, “2-substituted adenosines and 2-substituted adenosine 5'-carboxamides” (priority 1990, dated 1994).

Structures are written as SMILES. Like-named read-outs stand apart in the source and are kept apart here. Bounds are passed on as bounds.

T1 sequence (E1BKU0 1-401): as the sequence (E1BKU0 1-401) above
T4 sequence (P30543 whole entry): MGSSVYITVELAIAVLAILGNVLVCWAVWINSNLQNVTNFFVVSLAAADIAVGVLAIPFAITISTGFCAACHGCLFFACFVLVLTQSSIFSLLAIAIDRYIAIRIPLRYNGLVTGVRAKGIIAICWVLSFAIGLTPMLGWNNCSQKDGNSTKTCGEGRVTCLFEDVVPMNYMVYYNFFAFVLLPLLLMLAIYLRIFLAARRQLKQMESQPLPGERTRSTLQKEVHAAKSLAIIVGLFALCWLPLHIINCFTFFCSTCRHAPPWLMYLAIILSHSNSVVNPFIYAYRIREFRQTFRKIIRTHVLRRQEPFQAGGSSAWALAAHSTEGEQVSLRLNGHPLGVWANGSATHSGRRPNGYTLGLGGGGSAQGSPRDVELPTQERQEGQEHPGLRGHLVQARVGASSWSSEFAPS

The ED50 is the midpoint of the dose-response relation. In the case of `CCNC(=O)[C@H]1O[C@@H](n2cnc3c(N)ncnc32)[C@H](O)[C@@H]1O` [NECA, 5'-N-ethylcarboxamidoadenosine, reference compound], the activation at 1 µM with human platelets (Homo sapiens) was found to be 35%. In test [1], the ED50 turned out to be 2 µg/kg.

The term Kd denotes the concentration at which binding is half-saturated. Regarding `CCNC(=O)[C@H]1O[C@@H](n2cnc3c(N)nc(NCCc4ccc(CCC(=O)NCCNC(=O)Cc5ccc(N)c([125I])c5)cc4)nc32)[C@H](O)[C@@H]1O` [^125 I-PAPA-APEC], in [2] (bovine brain striatum), the Kd is 1.4 nM. The “degree of specific binding” value in [2] (striatal A2-adenosine receptors, bovine brain) is reported as 60-80%. The “specific binding and A2 receptor pharmacology” value in test [3] was “display specific binding and the appropriate A2 receptor pharmacology”.

Regarding `CCNC(=O)[C@H]1O[C@@H](n2cnc3c(N)nc(NCCc4ccc(CCC(=O)NCCNC(=S)Nc5ccc(-c6c7ccc(=O)cc-7oc7cc(O)ccc67)c(C(=O)O)c5)cc4)nc32)[C@H](O)[C@@H]1O` [Compound 18], the “affinity at A2-adenosine receptors” value in the test with A2-adenosine receptors [4] (fluorescent probes, derivatives in general) is “high affinity”. In addition, at A2 adenosine receptors [5], the Ki was determined as 59.8 ± 28 nM. The Ki at A2 adenosine receptors [6] was 59.8 ± 28 nM. Further, the “saturability of binding” value at adenosine A2 receptors (bovine striatal membranes, 16-256 nM) is listed as “saturable”. Also, at adenosine A2 receptors (setting [8]), the Bmax is 2.26 pmol/mg protein and the Kd was found to be 54.6 nM. In addition, the “time to binding equilibrium” value on adenosine A2 receptors (bovine striatum, room temperature, FITC-APEC 50 nM) was at most 90 min.

On to `CCNC(=O)[C@H]1O[C@@H](n2cnc3c(N)nc(NCCc4ccc(CCC(=O)NCCNC(=O)Cc5ccc(N)cc5)cc4)nc32)[C@H](O)[C@@H]1O` [Compound 6], for which the Ki was 1340 nM at A1-adenosine receptors, 28 ± 7 nM at A2-adenosine receptors [7] and 43 ± 14 nM on A2 adenosine receptors [6]. Also, the “Ki (A1)/K1 (A2)” value in the test with A2-adenosine receptors [4] (ratio of Ki at A1-receptors (rat) versus Ki in the 125I-PAPA-APEC assay (bovine)) turned out to be 31. Further, the activation at 1 µM in the test on human platelets (human platelets, 10^-6 M) is 40%. For the same compound, the “increase in cyclic AMP” value with human platelets (human platelets, 1 nM to 10 μM) is listed as “dose dependent increase in cyclic AMP”. On A2 adenosine receptors [6] (bovine brain A2, relative to compounds with Ki less than 10 nM), the “potency in displacing 125I-PAPA-APEC binding” value is on record as “less potent”.
